For 19 compounds, IC50 and EC50 results are on record in US11447486B2, “2-amino-benzimidazole derivatives and their use as 5-lipoxygenase and/or prostaglandin E synthase inhibitors” (INSTITUT PASTEUR KOREA, priority 2014, dated 2022).

In general, IC50 refers to the point on the concentration scale where inhibition reaches its midpoint. A word on the EC50: it is the concentration needed to bring the measured effect to its halfway point. A high value points to a less potent agent.

One assay addresses T1, human 5-LOX (Homo sapiens, UniProt P09917).
T1 construct: purchased Cayman 60402; host or cells: insect cells (lysate)
T1 sequence (P09917 1-674): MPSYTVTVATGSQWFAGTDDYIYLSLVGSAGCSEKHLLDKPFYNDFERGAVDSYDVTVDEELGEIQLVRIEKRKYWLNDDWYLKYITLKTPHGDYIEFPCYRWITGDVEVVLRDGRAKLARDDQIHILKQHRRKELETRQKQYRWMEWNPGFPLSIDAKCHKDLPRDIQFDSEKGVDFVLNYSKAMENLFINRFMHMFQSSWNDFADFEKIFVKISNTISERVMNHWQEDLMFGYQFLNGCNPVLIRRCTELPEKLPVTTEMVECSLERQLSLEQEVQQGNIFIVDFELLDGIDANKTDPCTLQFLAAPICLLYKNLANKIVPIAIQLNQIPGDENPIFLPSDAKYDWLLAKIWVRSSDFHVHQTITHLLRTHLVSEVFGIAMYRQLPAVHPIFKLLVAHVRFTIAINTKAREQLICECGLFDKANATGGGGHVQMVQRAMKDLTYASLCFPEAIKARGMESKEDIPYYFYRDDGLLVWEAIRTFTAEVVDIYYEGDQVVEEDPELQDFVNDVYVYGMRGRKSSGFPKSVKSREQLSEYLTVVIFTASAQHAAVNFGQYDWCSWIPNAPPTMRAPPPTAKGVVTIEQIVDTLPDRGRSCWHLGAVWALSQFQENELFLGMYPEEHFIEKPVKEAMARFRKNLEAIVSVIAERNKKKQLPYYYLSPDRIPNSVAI
The assay is described as follows: 5-LOX enzyme activity, fluorescence method (5-HPETE, H2DCFDA). It counts as biochemical. Conditions: read-out: 5-LO (IC50). An outline of the steps:
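Fluorescence-based read-out, run entirely at room temperature. Enzyme mixture was exposed to a dose range of compound from 0.5 nM to 10 uM for 5 min before ATP and arachidonic acid were added to final levels of 100 uM and 3 uM.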

For assay [1], the system named is Rat basophilic leukemia (RBL) cells. The assay can be described thus: LTB4 secretion assay in RBL (rat basophilic leukemia cells). It counts as cell-based. The note with it: Rattus norvegicus, RBL. The gist of the method: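 LTB4 released into supernatant was measured by EIA after 10 min at 37 °C with arachidonic acid (2.5 uM final) and calcium ionophore A23187 (5 uM final). Before stimulation, cells plated 2×10^4/well overnight received compound doses (5 nM to 100 uM) for 15 min in 0.5% FBS medium.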

The subject of the next assay is Rat whole blood (RWB). The assay can be described thus: LTB4 secretion assay in RWB (rat whole blood). In kind it is cell-based. Conditions: Rattus norvegicus. An outline of the steps:
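LTB4 release was measured by EIA in supernatants of pooled, sodium heparin rat blood (male Sprague Dawley, 6-9 weeks) diluted 1:1 with RPMI. Compounds (2.5 nM to 50 uM) were added 15 min before A23187 (10 uM final), with 10 min stimulation at 37 °C before ice-cold PBS quench.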

On to `Nc1ccc2nc(N)n(Cc3ccc(Oc4ccc(C(F)(F)F)cn4)cc3)c2c1` [Compound 243], for which, at human 5-LOX, the IC50 was less than 1 µM. For the same compound, the EC50 (in assay [1]; in the assay with Rat whole blood (RWB)) was less than 10 µM throughout.
Consider `CN(C)c1nc2cc(N3CCC(Oc4ccncc4)C3)ccc2[nH]1` (stereo not drawn) [Compound 202], for which the IC50 on human 5-LOX was less than 1 µM. In addition, the values for the EC50 (in assay [1]; with Rat whole blood (RWB)) were less than 10 µM and greater than 20 µM, respectively.
The matching figures for `Nc1ccc2nc(NCCO)n(Cc3ccc(Oc4ccc(Cl)cc4)cc3)c2c1` [Compound 155]: less than 1 µM, less than 10 µM and less than 10 µM.
The matching figures for `Cn1ccc(Nc2ccc3nc(NCc4ccc(Oc5ncc(Cl)cn5)cc4)n(C)c3c2)n1` [Compound 414]: less than 1 µM, less than 10 µM and less than 10 µM.
The matching figures for `Cn1c(NCc2ccc(Oc3ncc(C(F)(F)F)cn3)cc2)nc2ccc(NC3COC3)cc21` [Compound 374]: less than 1 µM, less than 10 µM and less than 10 µM.
For `c1ccc(Oc2ccc(CNc3nc4cc(NC5CCCC5)ccc4[nH]3)cc2)cc1` [Compound 97], the IC50 at human 5-LOX is less than 1 µM. Also, the EC50 (in assay [1]; in the assay on Rat whole blood (RWB)) was less than 10 µM each time.
Turning to `Cn1c(NCc2ccc(Oc3cnc(N)nc3)cc2)nc2ccc(NC3COC3)cc21` [Compound 369], the IC50 on human 5-LOX was less than 1 µM. Further, the EC50 (in assay [1]; with Rat whole blood (RWB)) was less than 10 µM in each case.
For the compound `Cn1c(NCc2ccc(Oc3ncccn3)cc2)nc2ccc(N)cc21` [Compound 344], at human 5-LOX, the IC50 was less than 1 µM. Also, the concentration giving a half-maximal response (EC50) is greater than 20 µM in assay [1] and 10 to 20 µM in the assay on Rat whole blood (RWB).
The matching figures for `CCC(Nc1nc2ccc(Nc3cc(C)[nH]n3)cc2n1C)c1ccc(Oc2ncc(Cl)cn2)cc1` (stereo not drawn) [Compound 477]: less than 1 µM, less than 10 µM and less than 10 µM.
Take `Cn1c(NCc2ccc(Oc3cccnc3)cc2)nc2ccc(NC3COC3)cc21` [Compound 227]: the IC50 at human 5-LOX is less than 1 µM. The EC50 (in assay [1]; in the assay with Rat whole blood (RWB)) was less than 10 µM in each case.
`Nc1ccc2nc(NCc3coc(-c4ccc(Cl)cc4)n3)[nH]c2c1` [Compound 175]: the IC50 at human 5-LOX is less than 1 µM. Moreover, the EC50 is less than 10 µM in assay [1] and greater than 20 µM in the assay on Rat whole blood (RWB).
As to `Cn1c(NCc2ccc(OCc3ncco3)cc2)nc2ccc(NC3COC3)cc21` [Compound 343], the IC50 on human 5-LOX is less than 1 µM. Further, the EC50 in assay [1] is greater than 20 µM; in the assay with Rat whole blood (RWB), 10 to 20 µM.
The matching figures for `CNc1nc2ccc(N3CCC(Oc4ccc(OC(F)(F)F)cc4)C3)cc2[nH]1` (stereo not drawn) [Compound 104]: less than 1 µM, less than 10 µM and greater than 20 µM.
The matching figures for `Cn1c(NCCOc2ccc(OC(F)(F)F)cc2Cl)nc2ccc(N)cc21` [Compound 56]: less than 1 µM, less than 10 µM and 10 to 20 µM.
The matching figures for `CC(Nc1ccc2nc(N(C)C)[nH]c2c1)c1ccc(Oc2ccc(Cl)cn2)cc1` (stereo not drawn) [Compound 152]: less than 1 µM, less than 10 µM and 10 to 20 µM.
In the case of `Nc1ccc2[nH]c(NCc3ccc(-c4ccc(Cl)cn4)cc3)nc2c1` [Compound 164], the IC50 at human 5-LOX was less than 1 µM. Further, the results for the EC50 (in assay [1]; with Rat whole blood (RWB)) were less than 10 µM and greater than 20 µM, respectively.
Consider `CC(Nc1ccc2nc(N(C)C)[nH]c2c1)c1ccc(Oc2ccc(OC(F)(F)F)cc2)nc1` (stereo not drawn) [Compound 150], for which the IC50 at human 5-LOX was less than 1 µM. Also, the EC50 is less than 10 µM in assay [1] and greater than 20 µM in the assay with Rat whole blood (RWB).
The matching figures for `Cc1cc(Nc2ccc3nc(NCc4ccc(Oc5ncc(Cl)cn5)cc4)n(CCC(F)(F)F)c3c2)n[nH]1` [Compound 491]: less than 1 µM, less than 10 µM and less than 10 µM.
Regarding `Clc1ccc(Oc2ccc(CNc3nc4cc(Nc5cn[nH]c5)ccc4[nH]3)cc2)cc1` [Compound 24], the IC50 at human 5-LOX is less than 1 µM. Further, the EC50 (in assay [1]; in the assay on Rat whole blood (RWB)) was less than 10 µM in each case.
